Assay results reported in article PMC10652874, “Investigation into the mechanism of action of the antimicrobial peptide epilancin 15X” (Frontiers in Microbiology, 2023).

Experiments:
[1] = system: S. carnosus TM300; assay: Membrane potential study with DiOC2 (flow cytometry); assay type: cell-based, Staphylococcus carnosus; conditions: S. carnosus TM300, 20 min, 0.5x, 1x, 4x MIC, n = 3
Protocol: Cultures of S. carnosus TM300 were grown to OD600 1.0 and diluted to OD600 0.1 in fresh BHI medium. The culture was then combined with 30 μM 3,3′-diethyloxacarbocyanine (DiOC2, ThermoFisher D14730) and incubated for 20 min. […] Another two tubes were prepared without antibiotic treatment as controls. The culture was analyzed with a BD Biosciences LSR II flow cytometer using excitation at 488 nm with an argon laser and measurement of emission through a band-pass filter at 616/20 nm. A minimum of 30,000 events were detected for each sample. The experiment was repeated three times, and the mean red/green fluorescence ratio was determined.

[2] = system: fatty acid biosynthesis in S. carnosus TM300; assay type: cell-based, Staphylococcus carnosus; conditions: S. carnosus TM300, 2× MIC, normalized to OD600, three independent experiments
Protocol: Thre e in de pen den t ex perime nts of incorporation of (A) 14C- acetic acid into fatty acids, (B) 14C- thymi din e into D NA, (C) 3H-uridi ne into RNA, (D) 14C- lab el ed ami no acids into protei n, and (E) 14C- label ed GlcNAc into cell w all in S. carnosus TM300 cells treated with vario u s antimicro bia l agents. T he p ercent i nco rpo ratio n at 0 min was measured after incubati ng the cel l cultur e with 0.8 μCi/mL radioactive precursors for 15 min. […] Positive controls a re gr een and negative controls are black (cells o nly) an d blu e (co mpo und w ith mo d e o f actio n unr elate d to th e a ssay i n que stio n). T he ra dio activity o f each a nti bio tic - treated cultur e was normalized based on it s OD600 at each time point compared to th e unt reate d ce ll cultur e.

[3] = system: protein biosynthesis in S. carnosus TM300; assay: Macromolecular synthesis assay: 14C-L-amino acids incorporation into protein; assay type: cell-based, Staphylococcus carnosus; conditions: S. carnosus TM300, 2× MIC, three independent experiments
Protocol: Radiolabel incorporation experiments were carried out similarly as previously described but using S. carnosus ([Wu et al., 2019]). The OD600 of parallel nonradioactive cultures was measured at each time point to normalize the measured radioactivity and minimize effects due to cell death and growth inhibition. The radiolabeled reagents and their corresponding positive and negative antibiotic controls were as follows. […] All experiments were conducted independently three times.
Figure S3. Thre e in de pen den t ex perime nts of incorporation of (A) 14C- acetic acid into fatty acids, (B) 14C- thymi din e into D NA, (C) 3H-uridi ne into RNA, (D) 14C- lab el ed ami no acids into protei n, and (E) 14C- label ed GlcNAc into cell w all in S. carnosus TM300 cells treated with vario u s antimicro bia l agents. T he p ercent i nco rpo ratio n at 0 min was measured after incubati ng the cel l cultur e with 0.8 μCi/mL radioactive precursors for 15 min. Then 0.5x, 1x, 2x, or 4x MIC epilanci n 15X and 2x MIC controls were added to the cell cultur e (t=0), and t he percent incorporation was measur ed ov er time. Positive controls a re gr een and negative controls are black (cells o nly) an d blu e (co mpo und w ith mo d e o f actio n unr elate d to th e a ssay i n que stio n). […]

[4] = system: LiaRS response in B. subtilis BSF2470; assay: LiaRS disk diffusion reporter assay (β-galactosidase, X-Gal); assay type: cell-based, Bacillus subtilis; conditions: 37°C overnight
Protocol: The LiaRS response was determined via disk diffusion as described previously ([Mascher et al., 2004]). Briefly, B. subtilis strain BSF2470 was grown in LB supplemented with erythromycin (1 μg/mL) overnight at 37°C with shaking. A total of 20 μL of overnight culture was mixed with 100 μL of 20 mg/mL X-Gal (dissolved in DMF) and 5 mL of 0.7% soft LB agar then poured onto a 1.5% LB agar base. The plates were allowed to cool and dry at room temperature for 20 min. The desired molecule was either spotted on a filter paper disk and placed on top of the agar or directly spotted on the agar. The following molecules were tested: ampicillin, 0.5 μL on filter disk, 1 μL directly spotted, 100 mg/mL; compound 1771/LtaS-IN-1, 4 μL, 20 mM (dissolved in DMSO); epilancin 15X, 4 μL, 5 mM; vancomycin, 1 μL, 100 mg/mL; nisin, 4 μL, 2 mM; bacitracin, 4 μL on filter disk, 5 μL directly spotted, 100 mg/mL; water, 5 μL; magainin 2, 10 μL, 1 mM; melittin, 10 μL, 1 mM. The plate was incubated at 37°C overnight. After overnight incubation, the plate was imaged. Compound 1771 (CS-0114233) was purchased from ChemScene LLC.
To investigate the effect of epilancin 15X on the cell envelope, we employed the two-component LiaRS reporter system in B. subtilis (lipid II cycle interfering antibiotic response regulator and sensor; [Mascher et al., 2004]). Briefly, the LiaRS assay is a disk diffusion assay used to screen for the ability of compounds to induce β-galactosidase expression in engineered B. subtilis BSF2470 ([Mascher et al., 2004]). Molecules that produce a blue ring around the edge of the zone of growth inhibition are believed to interfere with the lipid II cycle ([Hachmann et al., 2009]). […] The compound 1771, also called LtaS-IN-1, inhibits lipoteichoic acid (LTA) synthesis ([Richter et al., 2013]) and to the best of our knowledge has not been tested in the LiaRS assay.

[5] = system: B. subtilis ATCC 6633; assay: Fluorescence and bright field (Airyscan) microscopy; assay type: cell-based, Bacillus subtilis
Protocol: Standard microscope slides coated with poly-D-lysine (R&D Systems, 34–392 − 000101) overnight were washed with water and sterilized in ethanol. Overnight bacterial culture was centrifuged at 4,500 ×g and the pellet was resuspended gently three times in fresh PBS to remove the media background. Then 20 μL of cell culture in PBS and 180 μL of PBS were loaded on each slide and incubated at room temperature for 30 min. Next, 1 mL of PBS was used to wash the slides at least five times to remove unadhered cells. A final concentration of 200 nM epilancin 15X-TAMRA in 200 μL of PBS was applied to each slide and incubated at room temperature for 30 min. PBS was used to wash the slides at least five times to wash away unbound Epilancin 15X. A final concentration of 10% formaldehyde (Thermo Scientific, PI28906) and 2.5% glutaraldehyde (Fisher Chemical, O2957–1) in PBS was applied to each slide and incubated for 30 min. Three times 1 mL of PBS was applied to wash away excess fixing solution. A drop of ProLong Glass Antifade Mountant (Invitrogen, P36982) was applied to each slide, covered with a glass coverslip (Ibidi, NC0601315), and dried overnight protected from light. All micrographs were captured using a Zeiss LSM 880 Airyscan microscope (Carl R. Woese Institute for Genomic Biology, UIUC). […]

[6] = system: Bacillus megaterium; conditions: ref Wang et al., 2023; cited from earlier work
Text: (§1) Recent studies have shown that epilancin 15X activity varies depending on the indicator strain, with bacteriostatic activity against Staphylococcus simulans and Micrococcus flavus but bactericidal activity against Bacillus megaterium ([Wang et al., 2023]).

[7] = system: Micrococcus flavus; conditions: ref Wang et al., 2023; cited from earlier work
Text: as §1

[8] = system: Staphylococcus simulans; conditions: ref Wang et al., 2023; cited from earlier work
Text: as §1

**Q.** Which results are given for Epilancin 15X?
**A.** red/green fluorescence ratio of DiOC2 (membrane potential) [1]: increase; fatty acid biosynthesis (14C-acetic acid incorporation) [2]: decrease; protein biosynthesis (14C-L-amino acid incorporation) [3]: considerably stronger effect than that observed with the respective negative controls; LiaRS response (blue ring at the edge of the zone of inhibition) [4]: did not induce a LiaRS response; aggregation phenotype of cells (brightfield) [5]: Aggregation and chaining of cells was observed; type of antimicrobial activity [6]: bactericidal; type of antimicrobial activity [7]: bacteriostatic; type of antimicrobial activity [8]: bacteriostatic
